Data taken from patent US9308282B2, “[F-18]-labelled L-glutamic acid and L-glutamine derivatives (I), their use and processes for their preparation” (PIRAMAL IMAGING SA, priority 2008, dated 2016).

Legend:
[1] = system: A549 and H460 tumour cells; test: cell uptake of S-configured, F-18-labelled glutamic acid derivatives
Excerpt: Following labelling with F-18, (2S,4S)-2-amino-4-(3-[F-18]fluoropropyl)pentanedioic acid was examined in cell experiments with A549 and H460 tumour cells (both human non-small-cell bronchial carcinoma cell lines).

A549 tumour = test: PET/CT imaging in mice bearing A549 tumours; assay type: in vivo; conditions: 60 min after i.v. 10 MBq, 20 min data acquisition
H460 tumour = test: PET with rats bearing H460 tumours; assay type: in vivo; conditions: 80 min after i.v. 18 MBq, 20 min data acquisition

Compound: N[C@@H](C[C@H](CCC[18F])C(=O)O)C(=O)O
- cellular uptake over time [1]: time-dependent cellular uptake
- PET/CT image analysis: uptake into the A549 tumour (A549 tumour): high uptake
- PET image analysis: uptake into the H460 tumour (H460 tumour): high uptake
